From the supplement of paper PMC10307832

How the values were obtained:
Assay in all cases: relative viability (nuclei count vs DMSO), 5 days (fraction); higher = more cells survive
Dasatinib + Alpelisib = compound: Cc1nc(Nc2ncc(C(=O)Nc3c(C)cccc3Cl)s2)cc(N2CCN(CCO)CC2)n1 [Dasatinib] + Cc1nc(NC(=O)N2CCC[C@H]2C(N)=O)sc1-c1ccnc(C(C)(C)C(F)(F)F)c1 [Alpelisib] (partner 2 µM)
In short: (§1)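 Relative viability was taken as the ratio of nuclei in treated wells to nuclei in vehicle wells. Lung cancer cell lines in 1536-well plates received compounds by pin tool one day after seeding, either one drug alone or a fixed anchor-drug dose plus five library-drug doses (not always all listed) in √10 steps. Nuclei were counted on 4× images after 5 days of treatment, and values are medians of duplicate plates.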

XMD13-2 + Linsitinib = compound: C1CC1C(=O)NC2=NNC3=C2C=CC(=C3)C4=CC(=CC=C4)C(=O)NC5CC5 [XMD13-2] + C[C@]1(O)C[C@@H](c2nc(-c3ccc4ccc(-c5ccccc5)nc4c3)c3c(N)nccn32)C1 [Linsitinib] (partner 1 µM)
In short: as §1

XMD13-2 + Vorinostat = compound: C1CC1C(=O)NC2=NNC3=C2C=CC(=C3)C4=CC(=CC=C4)C(=O)NC5CC5 [XMD13-2] + O=C(CCCCCCC(=O)Nc1ccccc1)NO [Vorinostat] (partner 1 µM)
In short: as §1

Dasatinib + Tozasertib = compound: Cc1nc(Nc2ncc(C(=O)Nc3c(C)cccc3Cl)s2)cc(N2CCN(CCO)CC2)n1 [Dasatinib] + Cc1cc(Nc2cc(N3CCN(C)CC3)nc(Sc3ccc(NC(=O)C4CC4)cc3)n2)n[nH]1 [Tozasertib] (partner 0.1 µM)
In short: as §1

NCI-H2405
relative viability (Dasatinib + Alpelisib; first compound 0.005 µM): 0.621
relative viability (Dasatinib + Alpelisib; first compound 0.01581 µM): 0.334
relative viability (Dasatinib + Alpelisib; first compound 0.05 µM): 0.366
relative viability (Dasatinib + Alpelisib; first compound 0.1581 µM): 0.23
relative viability (Dasatinib + Alpelisib; first compound 0.5 µM): 0.162
relative viability (XMD13-2 + Linsitinib; first compound 0.05 µM): 0.936
relative viability (XMD13-2 + Linsitinib; first compound 0.1581 µM): 0.975
relative viability (XMD13-2 + Linsitinib; first compound 0.5 µM): 0.958
relative viability (XMD13-2 + Linsitinib; first compound 1.581 µM): 0.939
relative viability (XMD13-2 + Linsitinib; first compound 5 µM): 1.03
relative viability (XMD13-2 + Vorinostat; first compound 0.05 µM): 1.08
relative viability (XMD13-2 + Vorinostat; first compound 0.1581 µM): 0.934
relative viability (XMD13-2 + Vorinostat; first compound 0.5 µM): 1.04
relative viability (XMD13-2 + Vorinostat; first compound 5 µM): 0.965
relative viability (Dasatinib + Tozasertib; first compound 0.005 µM): 0.639
relative viability (Dasatinib + Tozasertib; first compound 0.01581 µM): 0.468
relative viability (Dasatinib + Tozasertib; first compound 0.05 µM): 0.448
relative viability (Dasatinib + Tozasertib; first compound 0.1581 µM): 0.222
relative viability (Dasatinib + Tozasertib; first compound 0.5 µM): 0.161

NCI-H3122
relative viability (Dasatinib + Alpelisib; first compound 0.005 µM): 0.835
relative viability (Dasatinib + Alpelisib; first compound 0.01581 µM): 0.858
relative viability (Dasatinib + Alpelisib; first compound 0.05 µM): 0.87
relative viability (Dasatinib + Alpelisib; first compound 0.1581 µM): 0.693
relative viability (Dasatinib + Alpelisib; first compound 0.5 µM): 0.718
relative viability (XMD13-2 + Linsitinib; first compound 0.05 µM): 1.02
relative viability (XMD13-2 + Linsitinib; first compound 0.1581 µM): 1.01
relative viability (XMD13-2 + Linsitinib; first compound 0.5 µM): 1.04
relative viability (XMD13-2 + Linsitinib; first compound 1.581 µM): 1.06
relative viability (XMD13-2 + Linsitinib; first compound 5 µM): 0.951
relative viability (XMD13-2 + Vorinostat; first compound 0.05 µM): 1.04
relative viability (XMD13-2 + Vorinostat; first compound 0.1581 µM): 0.987
relative viability (XMD13-2 + Vorinostat; first compound 0.5 µM): 1.1
relative viability (XMD13-2 + Vorinostat; first compound 1.581 µM): 0.995
relative viability (XMD13-2 + Vorinostat; first compound 5 µM): 0.941
relative viability (Dasatinib + Tozasertib; first compound 0.005 µM): 0.38
relative viability (Dasatinib + Tozasertib; first compound 0.01581 µM): 0.388
relative viability (Dasatinib + Tozasertib; first compound 0.05 µM): 0.414
relative viability (Dasatinib + Tozasertib; first compound 0.1581 µM): 0.373
relative viability (Dasatinib + Tozasertib; first compound 0.5 µM): 0.292

PC-3 [JPC-3]
relative viability (Dasatinib + Alpelisib; first compound 0.005 µM): 1.08
relative viability (Dasatinib + Alpelisib; first compound 0.01581 µM): 1.09
relative viability (Dasatinib + Alpelisib; first compound 0.05 µM): 1.12
relative viability (Dasatinib + Alpelisib; first compound 0.1581 µM): 0.966
relative viability (Dasatinib + Alpelisib; first compound 0.5 µM): 0.477
relative viability (XMD13-2 + Linsitinib; first compound 0.05 µM): 0.915
relative viability (XMD13-2 + Linsitinib; first compound 0.1581 µM): 0.961
relative viability (XMD13-2 + Linsitinib; first compound 0.5 µM): 1.01
relative viability (XMD13-2 + Linsitinib; first compound 1.581 µM): 0.906
relative viability (XMD13-2 + Linsitinib; first compound 5 µM): 1.01
relative viability (XMD13-2 + Vorinostat; first compound 0.05 µM): 0.804
relative viability (XMD13-2 + Vorinostat; first compound 0.1581 µM): 0.857
relative viability (XMD13-2 + Vorinostat; first compound 0.5 µM): 0.916
relative viability (XMD13-2 + Vorinostat; first compound 5 µM): 0.734
relative viability (Dasatinib + Tozasertib; first compound 0.005 µM): 0.895
relative viability (Dasatinib + Tozasertib; first compound 0.01581 µM): 0.859
relative viability (Dasatinib + Tozasertib; first compound 0.05 µM): 0.976
relative viability (Dasatinib + Tozasertib; first compound 0.1581 µM): 0.799
relative viability (Dasatinib + Tozasertib; first compound 0.5 µM): 0.579

PC-14
relative viability (Dasatinib + Alpelisib; first compound 0.005 µM): 0.916
relative viability (Dasatinib + Alpelisib; first compound 0.01581 µM): 0.85
relative viability (Dasatinib + Alpelisib; first compound 0.05 µM): 0.734
relative viability (Dasatinib + Alpelisib; first compound 0.1581 µM): 0.546
relative viability (Dasatinib + Alpelisib; first compound 0.5 µM): 0.185
relative viability (XMD13-2 + Linsitinib; first compound 0.05 µM): 0.986
relative viability (XMD13-2 + Linsitinib; first compound 0.1581 µM): 1.04
relative viability (XMD13-2 + Linsitinib; first compound 0.5 µM): 0.958
relative viability (XMD13-2 + Linsitinib; first compound 1.581 µM): 0.878
relative viability (XMD13-2 + Linsitinib; first compound 5 µM): 0.927
relative viability (XMD13-2 + Vorinostat; first compound 0.05 µM): 0.951
relative viability (XMD13-2 + Vorinostat; first compound 0.1581 µM): 0.934
relative viability (XMD13-2 + Vorinostat; first compound 0.5 µM): 0.749
relative viability (XMD13-2 + Vorinostat; first compound 1.581 µM): 0.825
relative viability (XMD13-2 + Vorinostat; first compound 5 µM): 0.975
relative viability (Dasatinib + Tozasertib; first compound 0.005 µM): 0.54
relative viability (Dasatinib + Tozasertib; first compound 0.01581 µM): 0.583
relative viability (Dasatinib + Tozasertib; first compound 0.05 µM): 0.514
relative viability (Dasatinib + Tozasertib; first compound 0.1581 µM): 0.667
relative viability (Dasatinib + Tozasertib; first compound 0.5 µM): 0.227

RERF-LC-KJ
relative viability (Dasatinib + Alpelisib; first compound 0.005 µM): 0.823
relative viability (Dasatinib + Alpelisib; first compound 0.01581 µM): 0.496
relative viability (Dasatinib + Alpelisib; first compound 0.05 µM): 0.665
relative viability (Dasatinib + Alpelisib; first compound 0.1581 µM): 0.614
relative viability (Dasatinib + Alpelisib; first compound 0.5 µM): 0.432
relative viability (XMD13-2 + Linsitinib; first compound 0.05 µM): 0.916
relative viability (XMD13-2 + Linsitinib; first compound 0.1581 µM): 0.89
relative viability (XMD13-2 + Linsitinib; first compound 0.5 µM): 0.947
relative viability (XMD13-2 + Linsitinib; first compound 1.581 µM): 0.817
relative viability (XMD13-2 + Linsitinib; first compound 5 µM): 0.871
relative viability (XMD13-2 + Vorinostat; first compound 0.05 µM): 0.783
relative viability (XMD13-2 + Vorinostat; first compound 0.1581 µM): 0.653
relative viability (XMD13-2 + Vorinostat; first compound 0.5 µM): 0.686
relative viability (XMD13-2 + Vorinostat; first compound 1.581 µM): 0.616
relative viability (XMD13-2 + Vorinostat; first compound 5 µM): 0.806
relative viability (Dasatinib + Tozasertib; first compound 0.005 µM): 0.52
relative viability (Dasatinib + Tozasertib; first compound 0.01581 µM): 0.511
relative viability (Dasatinib + Tozasertib; first compound 0.05 µM): 0.44
relative viability (Dasatinib + Tozasertib; first compound 0.1581 µM): 0.487
relative viability (Dasatinib + Tozasertib; first compound 0.5 µM): 0.406

SK-LU-1
relative viability (Dasatinib + Alpelisib; first compound 0.005 µM): 0.623
relative viability (Dasatinib + Alpelisib; first compound 0.01581 µM): 0.399
relative viability (Dasatinib + Alpelisib; first compound 0.05 µM): 0.318
relative viability (Dasatinib + Alpelisib; first compound 0.1581 µM): 0.2
relative viability (Dasatinib + Alpelisib; first compound 0.5 µM): 0.234
relative viability (XMD13-2 + Linsitinib; first compound 0.05 µM): 1.1
relative viability (XMD13-2 + Linsitinib; first compound 0.1581 µM): 1.19
relative viability (XMD13-2 + Linsitinib; first compound 0.5 µM): 1.45
relative viability (XMD13-2 + Linsitinib; first compound 1.581 µM): 0.929
relative viability (XMD13-2 + Linsitinib; first compound 5 µM): 1.14
relative viability (XMD13-2 + Vorinostat; first compound 0.05 µM): 0.874
relative viability (XMD13-2 + Vorinostat; first compound 0.1581 µM): 0.831
relative viability (XMD13-2 + Vorinostat; first compound 0.5 µM): 0.959
relative viability (XMD13-2 + Vorinostat; first compound 1.581 µM): 0.719
relative viability (XMD13-2 + Vorinostat; first compound 5 µM): 0.74
relative viability (Dasatinib + Tozasertib; first compound 0.005 µM): 0.272
relative viability (Dasatinib + Tozasertib; first compound 0.01581 µM): 0.194
relative viability (Dasatinib + Tozasertib; first compound 0.05 µM): 0.156
relative viability (Dasatinib + Tozasertib; first compound 0.1581 µM): 0.101
relative viability (Dasatinib + Tozasertib; first compound 0.5 µM): 0.0919

SK-MES-1
relative viability (Dasatinib + Alpelisib; first compound 0.005 µM): 0.991
relative viability (Dasatinib + Alpelisib; first compound 0.05 µM): 0.713
relative viability (Dasatinib + Alpelisib; first compound 0.1581 µM): 0.474
relative viability (Dasatinib + Alpelisib; first compound 0.5 µM): 0.251
relative viability (XMD13-2 + Linsitinib; first compound 0.05 µM): 1.11
relative viability (XMD13-2 + Linsitinib; first compound 0.1581 µM): 1.03
relative viability (XMD13-2 + Linsitinib; first compound 0.5 µM): 1.01
relative viability (XMD13-2 + Linsitinib; first compound 1.581 µM): 1.01
relative viability (XMD13-2 + Linsitinib; first compound 5 µM): 1.16
relative viability (XMD13-2 + Vorinostat; first compound 0.05 µM): 1.16
relative viability (XMD13-2 + Vorinostat; first compound 0.1581 µM): 1.09
relative viability (XMD13-2 + Vorinostat; first compound 0.5 µM): 1.07
relative viability (XMD13-2 + Vorinostat; first compound 1.581 µM): 1.03
relative viability (XMD13-2 + Vorinostat; first compound 5 µM): 1.31
relative viability (Dasatinib + Tozasertib; first compound 0.005 µM): 0.972
relative viability (Dasatinib + Tozasertib; first compound 0.01581 µM): 1.02
relative viability (Dasatinib + Tozasertib; first compound 0.05 µM): 0.938
relative viability (Dasatinib + Tozasertib; first compound 0.1581 µM): 0.556
relative viability (Dasatinib + Tozasertib; first compound 0.5 µM): 0.22

SW 1573
relative viability (Dasatinib + Alpelisib; first compound 0.005 µM): 0.596
relative viability (Dasatinib + Alpelisib; first compound 0.01581 µM): 0.524
relative viability (Dasatinib + Alpelisib; first compound 0.05 µM): 0.438
relative viability (Dasatinib + Alpelisib; first compound 0.1581 µM): 0.302
relative viability (Dasatinib + Alpelisib; first compound 0.5 µM): 0.241
relative viability (XMD13-2 + Linsitinib; first compound 0.05 µM): 0.82
relative viability (XMD13-2 + Linsitinib; first compound 0.1581 µM): 0.745
relative viability (XMD13-2 + Linsitinib; first compound 0.5 µM): 0.849
relative viability (XMD13-2 + Linsitinib; first compound 1.581 µM): 0.71
relative viability (XMD13-2 + Linsitinib; first compound 5 µM): 0.577
relative viability (XMD13-2 + Vorinostat; first compound 0.05 µM): 0.786
relative viability (XMD13-2 + Vorinostat; first compound 0.1581 µM): 0.625
relative viability (XMD13-2 + Vorinostat; first compound 0.5 µM): 0.853
relative viability (XMD13-2 + Vorinostat; first compound 1.581 µM): 0.844
relative viability (XMD13-2 + Vorinostat; first compound 5 µM): 0.385
relative viability (Dasatinib + Tozasertib; first compound 0.005 µM): 0.174
relative viability (Dasatinib + Tozasertib; first compound 0.01581 µM): 0.189
relative viability (Dasatinib + Tozasertib; first compound 0.05 µM): 0.193
relative viability (Dasatinib + Tozasertib; first compound 0.1581 µM): 0.128
relative viability (Dasatinib + Tozasertib; first compound 0.5 µM): 0.131
